{"source": "patent US8603968B2", "about": "“Cyclic peptides comprising at least one aza-β3-aminoacyl residue and their uses” (Centre National de la Recherche Scientifique, priority 2007, dated 2013)", "key": {"[1]": {"test_system": "sheep erythrocytes", "experiment": "Haemolytic activity on sheep erythrocytes", "type": "cell-based", "details": "at the doses tested, 1 hour at 37° C.", "experimental": "The haemolytic activity of the pseudopeptides is tested on sheep blood cells. The sheep erythrocytes are washed three times with a phosphate buffer saline [PBS buffer (pH 7.4)] by 5 minutes' centrifugation at 900 g and the final pellet is suspended in PBS. For the concentration of the erythrocyte solution, a concentration of erythrocytes corresponding to OD540 nm is established, and for the control well 100% haemolysis in the presence of 0.8 Triton X-100. The solutions of the different pseudopeptides diluted in water (100 μL) are arranged in a 96-well plate. 50 μL, of PBS 2× buffer solution then 50 μL of sheep erythrocyte solution is added to these solutions in order to produce a final volume of 200 μL. The suspensions obtained are incubated for 1 hour at 37° C. The samples are then centrifuged at 500 g for 5 min. 130 μL of supernatant of each sample is transferred to a new 96-well plate. The release of haemoglobin is quantified by measuring the absorbance at 540 nm of the supernatant by means of a microplate reader. The controls corresponding to the absence of haemolysis (white) and 100% haemolysis involve, respectively, the addition of 100 μL of PBS buffer and 100 μL of a 2% Triton X-100 solution to the wells containing 100 μL of saline erythrocyte solution (50 μL of PBS 2× and 50 μL of blood cell solution). Each measurement is carried out in triplicate."}, "[2]": {"test_system": "Gram-negative bacteria (E. coli to A. caviae)", "experiment": "Antibacterial activity in TSB rich medium (MIC), Gram-negative bacteria", "type": "cell-based", "details": "48 hours, at the concentrations tested (0.78-100 μM)", "experimental": "The tests were carried out on Gram-negative bacterial strains: Escherichia coli ATCC 25922, Salmonella enterica ATCC 13076, Pseudomonas aeruginosa ATCC 27853, Klebsiella oxytoca CIP 7932, Enterobacter aerogenes ATCC 13048 and Aeromonas caviae ATCC 15468 and on Gram-positive strains: Staphylococcus aureus ATCC 25923, Enterococcus faecalis CIP 186, Streptococcus equinus ATCC 5623, Listeria monocytogenes SOR 100, Bacillus megaterium ATCC 10778, Lactococcus gaviae ATCC 43921, Micrococcus luteus ATCC 10240.\nThe bacteria (10^5 CFU/mL) are incubated in a TSB (Tryptic Soy Broth) rich medium with increasing concentrations of cyclopseudopeptides (0.78, 3.12, 6.25, 12.5, 25, 50, 100 μM). This test is carried out in 96-well microplates. After incubation for 48 hours at 20° C. or 37° C., the optical density of the microplates is read at 595 nm in order to evaluate the bacterial growth and determine the minimum inhibitory concentration (MIC) for each molecule tested. Each measurement is carried out in triplicate."}, "[3]": {"test_system": "Salmonella thyphimurium", "experiment": "Antibacterial activity in poor medium enriched with beef extract PBB", "type": "cell-based", "details": "increasing doses (FIG. 4)", "experimental": "(§1) The tests were carried out on Gram-negative bacterial strains of Group 2 (pathogens): Escherichia coli, Salmonella thyphimurium, Pseudomonas aeruginosa, Klebsiella pneumonie and on Gram-positive strains: Bacillus megaterium (group 1) and […] (group 2).\n(§2) The bacteria are incubated in a PB poor medium in the case of the bacteria: Escherichia coli, Pseudomonas aeruginosa, Klebsiella pneumoniae, Bacillus megaterium and in a poor medium enriched with beef extract PBB in the case of two other bacteria: […] and Salmonella thyphimurium with increasing concentrations of peptides or analogues ranging from 1 to 320 μg/ml. This test is carried out in 96-well microplates. After incubation for 18 hours at 30° C. or 37° C., the optical density of the microplates is read at 595 nm in order to evaluate the bacterial growth and determine the minimum inhibitory concentration (MIC) for each molecule tested. Each measurement is performed in triplicate.\n(§3) Moreover, the minimum bactericidal concentration (MBC) is determined by plating the contents of the wells where there is an absence of bacterial growth on dishes containing rich media (Luria broth or (LB) or Brain Heart Infusion (BHi). The MBC corresponds to the concentration at which no bacterial colony is detected after incubation for 24 hours at 30 or 37° C."}, "[4]": {"test_system": "Streptococcus aureus", "experiment": "Antibacterial activity in poor medium enriched with beef extract PBB (MIC, MBC)", "type": "cell-based", "details": "increasing doses (FIG. 3)", "experimental": "as §1, §2, §3"}, "[5]": {"test_system": "rabbit erythrocytes", "details": "comparison peptide alternating L and D amino acids; cited from earlier work"}, "[6]": {"test_system": "mouse cell line ascites 302-sp", "experiment": "In vitro cytotoxicity (MTT)", "type": "cell-based", "experimental": "(§4) The effects of the different cyclic pseudopeptides on cell growth are evaluated in sterile 96-well plates. The cells are seeded at 5.10^5 cells per mL of culture medium (100 μL per well). The different pseudopeptides (10 μL per well) diluted in a saline solution are added at the time of seeding at the appropriate concentration (from 1 μg/mL to 1 mg/mL). The incubations are carried out at 37° C. under a humidified atmosphere containing 5% CO2 for 24 or 48 hours.\n(§5) After exposure to the compounds, the cell growth is assessed by measuring the formation of formazan from 3-(4,5-dimethylthiazol-2-yl)-2,5-diphenyltetrazolium (MTT). The absorbance at 540 nm is measured by a Titertek Multiscan MCC/340 microplate reader. Each measurement is carried out in triplicate."}, "[7]": {"test_system": "hamster cells (CHO-K1)", "experiment": "In vitro cytotoxicity (MTT)", "type": "cell-based", "details": "at 10 μg/mL", "experimental": "as §4, §5"}, "[8]": {"experiment": "In vitro cytotoxicity (MTT)", "type": "cell-based, hamster", "details": "hamster, CHO-K1 cells; read-out: lethal dose for 50% of the cells (LD50)", "experimental": "as §4, §5"}, "[9]": {"test_system": "rabbit erythrocytes", "experiment": "Haemolytic activity on rabbit erythrocytes", "type": "cell-based", "experimental": "The haemolytic activity of the pseudopeptides is tested on rabbit blood cells. Fresh rabbit erythrocytes are washed three times with a phosphate buffer saline [PBS buffer (pH 7.4)] by centrifugation for 5 min at 900 g and the final pellet is suspended in PBS. The NafNaf pseudopeptide solutions diluted in PBS (90 μL) are arranged in a 96-well plate. 90 μL of 2% rabbit erythrocyte solution (v/v) is added to these solutions to give a final volume of 180 μL and a concentration of 1% (v/v) blood cells. The suspensions obtained are incubated for 1 hour at 37° C. The samples are then centrifuged at 500 g for 5 min. 100 μL of supernatant of each sample is transferred into a new 96-well plate. The release of the haemoglobin is quantified by measuring the absorbance at 415 nm of the supernatant using a microplate reader. The controls corresponding to the absence of haemolysis (white) and to a 100% haemolysis consist, respectively, of the addition of 90 μL of PBS buffer and 90 μL of a 2% solution of Triton X-100 to the 90 μL of 2% blood cell solution. Each measurement is carried out in triplicate."}}}
{"compound": "N=C(N)NCCC[C@@H]1NC(=O)CN(CC2CCCCC2)NC(=O)[C@H](Cc2c[nH]c3ccccc23)NC(=O)CN(Cc2ccc(F)cc2)NC(=O)[C@H](CC2CCCCC2)NC(=O)CN(CCCCN)NC1=O", "note": "[FluoKil, c[-Arg-azaβ^3Lys-Cha-azaβ^3(4)Fpa-Trp-azaβ^3Cha-]]", "values": [{"measurement": "haemolytic activity", "setting": "[1]", "value": "no significant haemolytic activity"}]}
{"compound": "CC(C)C[C@@H]1NC(=O)CN(Cc2ccc(F)c3ccccc23)NC(=O)[C@H](CC(C)C)NC(=O)CN(Cc2cccc3ccccc23)NC(=O)[C@H](CCCCN)NC(=O)CN(CCCCN)NC1=O", "note": "[4Fluo1Naf, c[-Leu-azaβ^3Lys-Lys-azaβ^3(1)-Nal-Leu-azaβ^3(4F-1)Nal-]]", "values": [{"measurement": "haemolytic activity", "setting": "[1]", "value": "no significant haemolytic activity"}]}
{"compound": "CCCCCCCCCCCCN1CC(=O)N[C@@H](Cc2c[nH]c3ccccc23)C(=O)NN(Cc2cccc3ccccc23)CC(=O)N[C@@H](CCCCN)C(=O)NN(CCCCN)CC(=O)N[C@@H](CC2CCCCC2)C(=O)N1", "note": "[Chado, c[-Lys-azaβ^3Lys-Cha-azaβ^3Amy-Trp-azaβ^3(1)Nal-]]", "values": [{"measurement": "activity on the Gram-negative bacteria", "setting": "[2]", "value": "no activity"}]}
{"compound": "CC1(C)S[C@@H]2[C@H](NC(=O)[C@H](N)c3ccccc3)C(=O)N2[C@H]1C(=O)O", "note": "[Ampicillin]", "values": [{"measurement": "concentration at which active", "setting": "[3]", "value": 1, "unit": "µg/mL"}, {"measurement": "concentration at which active", "setting": "[4]", "value": 1, "unit": "µg/mL"}]}
{"compound": "[-(D)Lys-(L)Lys-(D)Leu-(L)Trp-(D)Leu-(L)Trp-]", "values": [{"measurement": "concentration at which haemolytic", "setting": "[5]", "value": 80, "unit": "µg/mL"}]}
{"compound": "CC(C)C[C@@H]1NC(=O)CN(Cc2cccc3ccccc23)NC(=O)[C@H](CC(C)C)NC(=O)CN(Cc2cccc3ccccc23)NC(=O)[C@H](CCCCN)NC(=O)CN(CCCCN)NC1=O", "note": "[NafNaf, c[-Leu-azaβ^3Lys-Lys-azaβ^3(1)Nal-Leu-azaβ^3(1)Nal-]]", "values": [{"measurement": "haemolytic activity", "setting": "[1]", "value": "no significant haemolytic activity"}, {"measurement": "LD50", "setting": "[6]; ascites 302-sp, compared with hamster cells", "value": "slightly lower"}, {"measurement": "effect on the cell viability", "setting": "[6]; at 10 μg/mL", "value": "slight effect"}, {"measurement": "cytotoxic effect", "setting": "[7]", "value": "no cytotoxic effect"}, {"measurement": "CC50", "setting": "[8]", "value": "~40", "unit": "µg/mL"}, {"measurement": "action on the erythrocytes", "setting": "[9]; at 20 μg/mL", "value": "no action"}, {"measurement": "haemolytic activity", "setting": "[9]; at the concentrations at which it is bactericidal", "value": "no haemolytic activity"}]}
